Test results published in ChEMBL document CHEMBL1153245, “A profile of the in vitro anti-tumor activity of imidazolium-based ionic liquids” (2010).

How the values were obtained:
Assay type in all cases: functional
HOP-62 = assay: Anticancer activity against human HOP62 cells after 48 hrs by sulforhodamine B assay; conditions: for CC50: read-out: LC50 (the source's name)
A549 = assay: Anticancer activity against human A549 cells assessed cell growth at 10 uM after 48 hrs by sulforhodamine B assay relative to control
SR [1] = assay: Anticancer activity against human SR cells after 48 hrs by sulforhodamine B assay; conditions: for CC50: read-out: LC50 (the source's name)
SF-295 = assay: Anticancer activity against human SF295 cells after 48 hrs by sulforhodamine B assay; conditions: for CC50: read-out: LC50 (the source's name)
OVCAR-4 = assay: Anticancer activity against human OVCAR4 cells after 48 hrs by sulforhodamine B assay; conditions: for CC50: read-out: LC50 (the source's name)
NCI-H322M = assay: Anticancer activity against human NCI-H322M cells after 48 hrs by sulforhodamine B assay
OVCAR-8 = assay: Anticancer activity against human OVCAR8 cells after 48 hrs by sulforhodamine B assay
MCF7 = assay: Anticancer activity against human MCF7 cells after 48 hrs by sulforhodamine B assay
SR [2] = assay: Anticancer activity against human SR cells assessed cell growth at 10 uM after 48 hrs by sulforhodamine B assay relative to control
KM12 [3] = assay: Anticancer activity against human KM12 cells after 48 hrs by sulforhodamine B assay; conditions: for CC50: read-out: LC50 (the source's name)
HOP-92 = assay: Anticancer activity against human HOP92 cells after 48 hrs by sulforhodamine B assay; conditions: for CC50: read-out: LC50 (the source's name)
NCI-H23 [4] = assay: Anticancer activity against human NCI-H23 cells after 48 hrs by sulforhodamine B assay; conditions: for CC50: read-out: LC50 (the source's name)
COLO 205 [5] = assay: Anticancer activity against human COLO205 cells assessed cell growth at 10 uM after 48 hrs by sulforhodamine B assay relative to control
K562 = assay: Anticancer activity against human K562 cells after 48 hrs by sulforhodamine B assay
EKVX = assay: Anticancer activity against human EKVX cells after 48 hrs by sulforhodamine B assay; conditions: for CC50: read-out: LC50 (the source's name)
HCC 2998 = assay: Anticancer activity against human HCC2998 cells after 48 hrs by sulforhodamine B assay; conditions: for CC50: read-out: LC50 (the source's name)
U-251 [6] = assay: Anticancer activity against human U251 cells after 48 hrs by sulforhodamine B assay; conditions: for CC50: read-out: LC50 (the source's name)
NCI-H226 = assay: Anticancer activity against human NCI-H226 cells after 48 hrs by sulforhodamine B assay
KM12 [7] = assay: Anticancer activity against human KM12 cells assessed cell growth at 10 uM after 48 hrs by sulforhodamine B assay relative to control
SW-620 = assay: Anticancer activity against human SW620 cells after 48 hrs by sulforhodamine B assay
COLO 205 [8] = assay: Anticancer activity against human COLO205 cells after 48 hrs by sulforhodamine B assay
A498 = assay: Anticancer activity against human A498 cells after 48 hrs by sulforhodamine B assay; conditions: for CC50: read-out: LC50 (the source's name)
PC-3 = assay: Anticancer activity against human PC3 cells assessed cell growth at 10 uM after 48 hrs by sulforhodamine B assay relative to control
SF-268 = assay: Anticancer activity against human SF268 cells assessed cell growth at 10 uM after 48 hrs by sulforhodamine B assay relative to control
OVCAR-5 = assay: Anticancer activity against human OVCAR5 cells assessed cell growth at 10 uM after 48 hrs by sulforhodamine B assay relative to control
SK-MEL-5 = assay: Anticancer activity against human SK-MEL-5 cells after 48 hrs by sulforhodamine B assay; conditions: for CC50: read-out: LC50 (the source's name)
MDA-MB-468 = assay: Anticancer activity against human MDA-MB-468 cells after 48 hrs by sulforhodamine B assay
SK-OV-3 [9] = assay: Anticancer activity against human SKOV3 cells after 48 hrs by sulforhodamine B assay; conditions: for CC50: read-out: LC50 (the source's name)
LOX IMVI = assay: Anticancer activity against human LOXIMVI cells after 48 hrs by sulforhodamine B assay; conditions: for CC50: read-out: LC50 (the source's name)
SNB-75 = assay: Anticancer activity against human SNB75 cells after 48 hrs by sulforhodamine B assay; conditions: for CC50: read-out: LC50 (the source's name)
U-251 [10] = assay: Anticancer activity against human U251 cells assessed cell growth at 10 uM after 48 hrs by sulforhodamine B assay relative to control
UO-31 = assay: Anticancer activity against human UO31 cells assessed cell growth at 10 uM after 48 hrs by sulforhodamine B assay relative to control
MOLT-4 = assay: Anticancer activity against human MOLT4 cells assessed cell growth at 10 uM after 48 hrs by sulforhodamine B assay relative to control
T47D = assay: Anticancer activity against human T47D cells after 48 hrs by sulforhodamine B assay
NCI-H23 [11] = assay: Anticancer activity against human NCI-H23 cells assessed cell growth at 10 uM after 48 hrs by sulforhodamine B assay relative to control
HT-29 = assay: Anticancer activity against human HT-29 cells assessed cell growth at 10 uM after 48 hrs by sulforhodamine B assay relative to control
SK-OV-3 [12] = assay: Anticancer activity against human SKOV3 cells assessed cell growth at 10 uM after 48 hrs by sulforhodamine B assay relative to control
HL-60(TB) = assay: Anticancer activity against human HL-60(TB) cells after 48 hrs by sulforhodamine B assay; conditions: for CC50: read-out: LC50 (the source's name)
ACHN = assay: Anticancer activity against human ACHN cells after 48 hrs by sulforhodamine B assay
SN12C = assay: Anticancer activity against human SN12C cells assessed cell growth at 10 uM after 48 hrs by sulforhodamine B assay relative to control
NCI/ADR-RES = assay: Anticancer activity against human NCI/ADR-RES cells after 48 hrs by sulforhodamine B assay
[13] = Homo sapiens, NCI/ADR-RES, 48 h

## CCCCCCCCCCCCCCCCCC[n+]1ccn(C)c1.F[P-](F)(F)(F)(F)F
HOP-62
  GI50: 1450 nM
  CC50: 7770 nM
A549
  Activity: -24.42%
SR [1]
  GI50: 1850 nM
  CC50: > 100000 nM
SF-295
  GI50: 503 nM
  CC50: 6020 nM
OVCAR-4
  GI50: 1030 nM
  CC50: 6330 nM
NCI-H322M
  GI50: 1610 nM
  LC50: > 100000 nM
OVCAR-8
  GI50: 1300 nM
  LC50: 9800 nM
MCF7
  GI50: 728 nM
  LC50 (50% cell kill): 4500 nM
SR [2]
  Activity: 13.95%
KM12 [3]
  GI50: 471 nM
  CC50: 4000 nM
HOP-92
  GI50: 927 nM
  CC50: 6680 nM
NCI-H23 [4]
  GI50: 424 nM
  CC50: 7980 nM
COLO 205 [5]
  Activity: -27.43%
K562
  GI50: 935 nM
EKVX
  GI50: 1120 nM
  CC50: 7640 nM
HCC 2998
  GI50: 293 nM
  CC50: 5860 nM
U-251 [6]
  GI50: 482 nM
  CC50: 4200 nM
NCI-H226
  GI50: 1170 nM
  LC50: 5740 nM
KM12 [7]
  Activity: -60.81%
SW-620
  GI50: 519 nM
  LC50: 4320 nM
COLO 205 [8]
  GI50: 389 nM
A498
  GI50: 1150 nM
  CC50: 7550 nM
PC-3
  Activity: -62.83%
SF-268
  Activity: -48.33%
OVCAR-5
  Activity: -60.74%
SK-MEL-5
  GI50: 617 nM
  CC50: 4370 nM
MDA-MB-468
  GI50: 159 nM
  LC50: 5110 nM
SK-OV-3 [9]
  GI50: 1810 nM
  CC50: 4200 nM
LOX IMVI
  GI50: 385 nM
  CC50: 3840 nM
SNB-75
  GI50: 991 nM
  CC50: 6500 nM
U-251 [10]
  Activity: -22.42%
UO-31
  Activity: -29.46%
MOLT-4
  Activity: 2.98%
T47D
  GI50: 719 nM
NCI-H23 [11]
  Activity: -49.37%
HT-29
  Activity: -50.31%
SK-OV-3 [12]
  Activity: -6.01%
HL-60(TB)
  GI50: 185 nM
  CC50: > 100000 nM
ACHN
  GI50: 934 nM
  LC50: 4620 nM
SN12C
  Activity: -24.52%
NCI/ADR-RES
  GI50: 1450 nM

## CCCCCCCCCCCCCCCCCC[n+]1ccn(C)c1.O=S(=O)([N-]S(=O)(=O)C(F)(F)F)C(F)(F)F
HOP-62; Homo sapiens, HOP-62, 48 h
  GI50: 1110 nM
  CC50: 9780 nM
A549
  Activity: -47.24%
SR [1]; Homo sapiens, SR, 48 h
  GI50: 1240 nM
  CC50: > 100000 nM
SF-295; Homo sapiens, SF-295, 48 h
  GI50: 484 nM
  CC50: 6610 nM
OVCAR-4; Homo sapiens, OVCAR-4, 48 h
  GI50: 351 nM
  CC50: > 100000 nM
NCI-H322M; Homo sapiens, NCI-H322M, 48 h
  GI50: 1520 nM
  LC50: 6400 nM
OVCAR-8; Homo sapiens, OVCAR-8, 48 h
  GI50: 913 nM
  LC50: > 100000 nM
MCF7; Homo sapiens, MCF7, 48 h
  GI50: 1000 nM
  LC50 (50% cell kill): 5520 nM
SR [2]
  Activity: 19%
KM12 [3]; Homo sapiens, KM12, 48 h
  GI50: 454 nM
  CC50: 5460 nM
HOP-92; Homo sapiens, HOP-92, 48 h
  GI50: 350 nM
  CC50: > 100000 nM
NCI-H23 [4]; Homo sapiens, NCI-H23, 48 h
  GI50: 407 nM
  CC50: 7700 nM
COLO 205 [5]
  Activity: -47.26%
K562; Homo sapiens, K562, 48 h
  GI50: 312 nM
K562; Homo sapiens, K562, 48 h, read-out: LC50 (the source's name)
  CC50: > 100000 nM
EKVX; Homo sapiens, EKVX, 48 h
  GI50: 673 nM
  CC50: 5760 nM
HCC 2998; Homo sapiens, HCC 2998, 48 h
  GI50: 494 nM
  CC50: 9070 nM
U-251 [6]; Homo sapiens, U-251, 48 h
  GI50: 397 nM
  CC50: 3970 nM
NCI-H226; Homo sapiens, NCI-H226, 48 h
  GI50: 1260 nM
  LC50: 8000 nM
KM12 [7]
  Activity: -61.9%
SW-620; Homo sapiens, SW-620, 48 h
  GI50: 520 nM
  LC50: 6480 nM
COLO 205 [8]; Homo sapiens, COLO 205, 48 h
  GI50: 350 nM
COLO 205 [8]; Homo sapiens, COLO 205, 48 h, read-out: LC50 (the source's name)
  CC50: 4020 nM
A498; Homo sapiens, A498, 48 h
  GI50: 1070 nM
  CC50: 6220 nM
PC-3
  Activity: -62.3%
SF-268
  Activity: -45.26%
OVCAR-5
  Activity: -59.68%
SK-MEL-5; Homo sapiens, SK-MEL-5, 48 h
  GI50: 532 nM
  CC50: 4210 nM
MDA-MB-468; Homo sapiens, MDA-MB-468, 48 h
  GI50: 196 nM
  LC50: > 100000 nM
SK-OV-3 [9]; Homo sapiens, SK-OV-3, 48 h
  GI50: 1160 nM
  CC50: 5820 nM
LOX IMVI; Homo sapiens, LOX IMVI, 48 h
  GI50: 406 nM
  CC50: 5240 nM
SNB-75; Homo sapiens, SNB-75, 48 h
  GI50: 530 nM
  CC50: 5710 nM
U-251 [10]
  Activity: -63.9%
UO-31
  Activity: -66.09%
MOLT-4
  Activity: 9.25%
T47D; Homo sapiens, T47D, 48 h
  GI50: 600 nM
T47D; Homo sapiens, T47D, 48 h, read-out: LC50 (the source's name)
  CC50: > 100000 nM
NCI-H23 [11]
  Activity: -44.29%
HT-29
  Activity: -36.79%
SK-OV-3 [12]
  Activity: -9.16%
HL-60(TB); Homo sapiens, HL-60, 48 h
  GI50: 293 nM
  CC50: > 100000 nM
ACHN; Homo sapiens, ACHN, 48 h
  GI50: 920 nM
  LC50: 4780 nM
SN12C
  Activity: -68.39%
NCI/ADR-RES; [13]
  GI50: 1240 nM
  LC50: 9410 nM
